{
  "source": "patent US6673812B1",
  "about": "“Preventives/remedies for glaucoma” (Senju Pharmaceutical Co., Ltd., priority 1998, dated 2004)",
  "system": "Japanese white rabbits",
  "experiment": "Ophthalmic disorder caused by 8-time-a-day instillation to white rabbits: macroscopic observation of anterior segment of the eye",
  "assay_type": "in vivo, rabbit",
  "design": "scale not given here",
  "conditions": "mean of three eyes",
  "method": "The test drugs, Compound A and Compound C, were each dissolved in the following base at a concentration of 0.125, 0.25, 0.5 and 1.0% and adjusted to pH 7 for use in this experiment. [table] Japanese white rabbits (body weight about 2 kg) purchased from Japan Laboratory Animals, INC. were used. These animals were bred in a breeding chamber set to temperature 23±3° C., humidity 55±10% and fed on limited amount of 100 g a day of a solid feed (Labo R Stock, Nihon-Nosan Kogyo K.K.). They were allowed free access to tap water. Instillation: Using a micropipet, each test drug (100 μl) was instilled into the right eye of each animal 8 times at one hour intervals. Into the left eye was instilled a base in the same manner. Observation: anterior segment of the eye was macroscopically observed before instillation and 30 min after 2nd, 4th, 6th and 8th administrations, according to the macroscopic criteria for ocular lesions as shown in Table 1 (Naruyuki Fukui, […] no Rinshou 4, 277-289, 1970). In addition, corneal staining spot was observed before instillation and after 8th administration. [table]",
  "key": {"[1]": {"conditions": "0.5%, 30 min after 2nd instillation"}, "[2]": {"conditions": "0.5%, 30 min after 4th instillation"}, "[3]": {"conditions": "0.5%, 30 min after 6th instillation"}, "[4]": {"conditions": "0.5%, 30 min after 8th instillation"}, "[5]": {"conditions": "1.0%, 30 min after 2nd instillation"}, "[6]": {"conditions": "1.0%, 30 min after 4th instillation"}, "[7]": {"conditions": "1.0%, 30 min after 6th instillation"}, "[8]": {"conditions": "1.0%, 30 min after 8th instillation"}},
  "data": [
    {"compound": "C[C@@H](N)c1ccc(C(=O)Nc2ccncc2)cc1.Cl.Cl", "note": "[Compound C, (R)-(+)-N-(4-pyridyl)-4-(1-aminoethyl)benzamide 2HCl]", "values": [
      {"measurement": "Score of ocular lesions: Conjunctiva Bulbar redness", "setting": "[1]", "result": 0.50},
      {"measurement": "Score of ocular lesions: Conjunctiva Discharge", "setting": "[1]", "result": 0},
      {"measurement": "Score of ocular lesions: Conjunctiva Nictitating membrane", "setting": "[1]", "result": 0.50},
      {"measurement": "Score of ocular lesions: Conjunctiva Palpebral edema", "setting": "[1]", "result": 0},
      {"measurement": "Score of ocular lesions: Conjunctiva Palpebral redness", "setting": "[1]", "result": 0},
      {"measurement": "Score of ocular lesions: Cornea Area", "setting": "[1]", "result": 0},
      {"measurement": "Score of ocular lesions: Cornea Degree", "setting": "[1]", "result": 0},
      {"measurement": "Score of ocular lesions: Iris Values", "setting": "[1]", "result": 0},
      {"measurement": "Score of ocular lesions: Total score", "setting": "[1]", "result": 1.00},
      {"measurement": "Score of ocular lesions: Conjunctiva Bulbar redness", "setting": "[2]", "result": 0.50},
      {"measurement": "Score of ocular lesions: Conjunctiva Discharge", "setting": "[2]", "result": 0.17},
      {"measurement": "Score of ocular lesions: Conjunctiva Nictitating membrane", "setting": "[2]", "result": 0.33},
      {"measurement": "Score of ocular lesions: Conjunctiva Palpebral edema", "setting": "[2]", "result": 0.33},
      {"measurement": "Score of ocular lesions: Conjunctiva Palpebral redness", "setting": "[2]", "result": 0.33},
      {"measurement": "Score of ocular lesions: Cornea Area", "setting": "[2]", "result": 0},
      {"measurement": "Score of ocular lesions: Cornea Degree", "setting": "[2]", "result": 0},
      {"measurement": "Score of ocular lesions: Iris Values", "setting": "[2]", "result": 0.33},
      {"measurement": "Score of ocular lesions: Total score", "setting": "[2]", "result": 1.99},
      {"measurement": "Score of ocular lesions: Conjunctiva Bulbar redness", "setting": "[3]", "result": 0.67},
      {"measurement": "Score of ocular lesions: Conjunctiva Discharge", "setting": "[3]", "result": 1.00},
      {"measurement": "Score of ocular lesions: Conjunctiva Nictitating membrane", "setting": "[3]", "result": 1.00},
      {"measurement": "Score of ocular lesions: Conjunctiva Palpebral edema", "setting": "[3]", "result": 0.33},
      {"measurement": "Score of ocular lesions: Conjunctiva Palpebral redness", "setting": "[3]", "result": 0.33},
      {"measurement": "Score of ocular lesions: Cornea Area", "setting": "[3]", "result": 0},
      {"measurement": "Score of ocular lesions: Cornea Degree", "setting": "[3]", "result": 0},
      {"measurement": "Score of ocular lesions: Iris Values", "setting": "[3]", "result": 0},
      {"measurement": "Score of ocular lesions: Total score", "setting": "[3]", "result": 3.83},
      {"measurement": "Score of ocular lesions: Conjunctiva Bulbar redness", "setting": "[4]", "result": 1.00},
      {"measurement": "Score of ocular lesions: Conjunctiva Discharge", "setting": "[4]", "result": 2.00},
      {"measurement": "Score of ocular lesions: Conjunctiva Nictitating membrane", "setting": "[4]", "result": 1.00},
      {"measurement": "Score of ocular lesions: Conjunctiva Palpebral edema", "setting": "[4]", "result": 2.83},
      {"measurement": "Score of ocular lesions: Conjunctiva Palpebral redness", "setting": "[4]", "result": 2.00},
      {"measurement": "Score of ocular lesions: Cornea Area", "setting": "[4]", "result": 0},
      {"measurement": "Score of ocular lesions: Cornea Degree", "setting": "[4]", "result": 0},
      {"measurement": "Score of ocular lesions: Iris Values", "setting": "[4]", "result": 0.67},
      {"measurement": "Score of ocular lesions: Total score", "setting": "[4]", "result": 9.50},
      {"measurement": "Score of ocular lesions: Conjunctiva Bulbar redness", "setting": "0.5%, Before instillation", "result": 0},
      {"measurement": "Score of ocular lesions: Conjunctiva Discharge", "setting": "0.5%, Before instillation", "result": 0},
      {"measurement": "Score of ocular lesions: Conjunctiva Nictitating membrane", "setting": "0.5%, Before instillation", "result": 0},
      {"measurement": "Score of ocular lesions: Conjunctiva Palpebral edema", "setting": "0.5%, Before instillation", "result": 0},
      {"measurement": "Score of ocular lesions: Conjunctiva Palpebral redness", "setting": "0.5%, Before instillation", "result": 0},
      {"measurement": "Score of ocular lesions: Cornea Area", "setting": "0.5%, Before instillation", "result": 0},
      {"measurement": "Score of ocular lesions: Cornea Degree", "setting": "0.5%, Before instillation", "result": 0},
      {"measurement": "Score of ocular lesions: Iris Values", "setting": "0.5%, Before instillation", "result": 0},
      {"measurement": "Score of ocular lesions: Total score", "setting": "0.5%, Before instillation", "result": 0},
      {"measurement": "Score of ocular lesions: Conjunctiva Bulbar redness", "setting": "[5]", "result": 0.50},
      {"measurement": "Score of ocular lesions: Conjunctiva Discharge", "setting": "[5]", "result": 0},
      {"measurement": "Score of ocular lesions: Conjunctiva Nictitating membrane", "setting": "[5]", "result": 0.50},
      {"measurement": "Score of ocular lesions: Conjunctiva Palpebral edema", "setting": "[5]", "result": 0},
      {"measurement": "Score of ocular lesions: Conjunctiva Palpebral redness", "setting": "[5]", "result": 0.17},
      {"measurement": "Score of ocular lesions: Cornea Area", "setting": "[5]", "result": 0},
      {"measurement": "Score of ocular lesions: Cornea Degree", "setting": "[5]", "result": 0},
      {"measurement": "Score of ocular lesions: Iris Values", "setting": "[5]", "result": 0},
      {"measurement": "Score of ocular lesions: Total score", "setting": "[5]", "result": 1.17},
      {"measurement": "Score of ocular lesions: Conjunctiva Bulbar redness", "setting": "[6]", "result": 0.50},
      {"measurement": "Score of ocular lesions: Conjunctiva Discharge", "setting": "[6]", "result": 0},
      {"measurement": "Score of ocular lesions: Conjunctiva Nictitating membrane", "setting": "[6]", "result": 0.50},
      {"measurement": "Score of ocular lesions: Conjunctiva Palpebral edema", "setting": "[6]", "result": 0.17},
      {"measurement": "Score of ocular lesions: Conjunctiva Palpebral redness", "setting": "[6]", "result": 0.50},
      {"measurement": "Score of ocular lesions: Cornea Area", "setting": "[6]", "result": 0},
      {"measurement": "Score of ocular lesions: Cornea Degree", "setting": "[6]", "result": 0},
      {"measurement": "Score of ocular lesions: Iris Values", "setting": "[6]", "result": 0.67},
      {"measurement": "Score of ocular lesions: Total score", "setting": "[6]", "result": 2.34},
      {"measurement": "Score of ocular lesions: Conjunctiva Bulbar redness", "setting": "[7]", "result": 0.67},
      {"measurement": "Score of ocular lesions: Conjunctiva Discharge", "setting": "[7]", "result": 0.33},
      {"measurement": "Score of ocular lesions: Conjunctiva Nictitating membrane", "setting": "[7]", "result": 0.83},
      {"measurement": "Score of ocular lesions: Conjunctiva Palpebral edema", "setting": "[7]", "result": 0.50},
      {"measurement": "Score of ocular lesions: Conjunctiva Palpebral redness", "setting": "[7]", "result": 0.50},
      {"measurement": "Score of ocular lesions: Cornea Area", "setting": "[7]", "result": 0},
      {"measurement": "Score of ocular lesions: Cornea Degree", "setting": "[7]", "result": 0},
      {"measurement": "Score of ocular lesions: Iris Values", "setting": "[7]", "result": 1.00},
      {"measurement": "Score of ocular lesions: Total score", "setting": "[7]", "result": 3.83},
      {"measurement": "Score of ocular lesions: Conjunctiva Bulbar redness", "setting": "[8]", "result": 2.00},
      {"measurement": "Score of ocular lesions: Conjunctiva Discharge", "setting": "[8]", "result": 2.33},
      {"measurement": "Score of ocular lesions: Conjunctiva Nictitating membrane", "setting": "[8]", "result": 1.67},
      {"measurement": "Score of ocular lesions: Conjunctiva Palpebral edema", "setting": "[8]", "result": 3.33},
      {"measurement": "Score of ocular lesions: Conjunctiva Palpebral redness", "setting": "[8]", "result": 2.33},
      {"measurement": "Score of ocular lesions: Cornea Area", "setting": "[8]", "result": 0},
      {"measurement": "Score of ocular lesions: Cornea Degree", "setting": "[8]", "result": 0},
      {"measurement": "Score of ocular lesions: Iris Values", "setting": "[8]", "result": 1.00},
      {"measurement": "Score of ocular lesions: Total score", "setting": "[8]", "result": 12.66},
      {"measurement": "Score of ocular lesions: Conjunctiva Bulbar redness", "setting": "1.0%, Before instillation", "result": 0},
      {"measurement": "Score of ocular lesions: Conjunctiva Discharge", "setting": "1.0%, Before instillation", "result": 0},
      {"measurement": "Score of ocular lesions: Conjunctiva Nictitating membrane", "setting": "1.0%, Before instillation", "result": 0},
      {"measurement": "Score of ocular lesions: Conjunctiva Palpebral edema", "setting": "1.0%, Before instillation", "result": 0},
      {"measurement": "Score of ocular lesions: Conjunctiva Palpebral redness", "setting": "1.0%, Before instillation", "result": 0},
      {"measurement": "Score of ocular lesions: Cornea Area", "setting": "1.0%, Before instillation", "result": 0},
      {"measurement": "Score of ocular lesions: Cornea Degree", "setting": "1.0%, Before instillation", "result": 0},
      {"measurement": "Score of ocular lesions: Iris Values", "setting": "1.0%, Before instillation", "result": 0},
      {"measurement": "Score of ocular lesions: Total score", "setting": "1.0%, Before instillation", "result": 0}
    ]}
  ]
}
